In US10745384B2, “Indazole derivatives as αv integrin antagonists” (BRISTOL-MYERS SQUIBB COMPANY, priority 2016, dated 2020):
Counter-ions that a name gives are not always drawn.

How the values were obtained:
human αVβ3 = human αVβ3 (Homo sapiens, UniProt P05106+P06756); experiment: human αVβ3 HTRF binding assay
Method: (§1) All binding assays used the HTRF (homogeneous time resolved fluorescence) technology from Cisbio International, therefore all assays are described as HTRF binding assays. The assay results for the Examples are listed above together with the characterization data. The HTRF binding assays are established for the following integrins: human αVβ6, human αVβ1, human αVβ3, human αVβ5, and human αVβ8. All assays used the following assay buffer: 20 mM Tris, pH 7.4, 1 mM MgCl2, 1 mM MnCl2, 0.01% Tween 20, and 0.01% BSA. Alternatively, a SPA-based assay was used for evaluation of receptor binding.
(§2) The following describes the components and a representative procedure for the human αVβ6 HTRF binding assay: Recombinant human αVβ6 Integrin (R & D systems, 3817-AV) was biotinylated. Biotinylated human αVβ6 Integrin was added to assay vessel at a final concentration of 1.25 nM. FITC-conjugated fibronectin (Cytoskeleton, FNR02) was then added at the final concentration of 5 nM. The mixture was centrifuged at 600 rpm for three minutes using Thermo Fisher Heraeus Multifuge X3 centrifuge and then incubated at room temperature for an hour. Streptavidin Terbium (Cisbio international 610STLB) was then added at the final concentration of 0.625 nM. The resulting mixture was centrifuged at 600 rpm for three minutes using Thermo Fisher Heraeus Multifuge X3 centrifuge and then incubated at room temperature overnight in dark before reading HTRF signals. […]

human αVβ1 = human αVβ1 (Homo sapiens, UniProt P05556+P06756); experiment: human αVβ1 HTRF binding assay
Method: as §1
The following describes the components and a representative procedure for the human αVβ6 HTRF binding assay: Recombinant human αVβ6 Integrin (R & D systems, 3817-AV) was biotinylated. Biotinylated human αVβ6 Integrin was added to assay vessel at a final concentration of 1.25 nM. FITC-conjugated fibronectin (Cytoskeleton, FNR02) was then added at the final concentration of 5 nM. The mixture was centrifuged at 600 rpm for three minutes using Thermo Fisher Heraeus Multifuge X3 centrifuge and then incubated at room temperature for an hour. Streptavidin Terbium (Cisbio international 610STLB) was then added at the final concentration of 0.625 nM. The resulting mixture was centrifuged at 600 rpm for three minutes using Thermo Fisher Heraeus Multifuge X3 centrifuge and then incubated at room temperature overnight in dark before reading HTRF signals.
The SPA-based assay was carried out according to the protocol and procedures similar to the ones described in the following reference with appropriate modifications to agents and ligands which are readily understood by one skilled in the art: Pachter J A, Zhang R, Mayer-Ezell R., “Scintillation proximity assay to measure binding of soluble fibronectin to antibody-captured αVβ1 integrin” Anal Biochem. 1995 Sep. 1; 230(1):101-7.

human αVβ8 = human αVβ8 (Homo sapiens, UniProt P06756+P26012); experiment: human αVβ8 HTRF binding assay
Method: as §1, §2

human αVβ6 = target: T1, human αVβ6 (Homo sapiens, UniProt P06756+P18564); experiment: human αVβ6 HTRF binding assay; details: recombinant human αVβ6 integrin, FITC-conjugated fibronectin
T1 construct: purchased R & D systems 3817-AV
Outline: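 HTRF binding in 20 mM Tris pH 7.4 with 1 mM MgCl2, 1 mM MnCl2, 0.01% Tween 20 and 0.01% BSA. For αVβ6, biotinylated integrin (1.25 nM) and FITC-fibronectin (5 nM) were incubated 1 h at RT, then streptavidin-terbium (0.625 nM) was added overnight in the dark. An SPA-based fibronectin binding format was an alternative.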

human αVβ5 = human αVβ5 (Homo sapiens, UniProt P06756+P18084); experiment: human αVβ5 HTRF binding assay
Method: as §1, §2

Chain of human αVβ5 (P06756 31-992 limits assumed): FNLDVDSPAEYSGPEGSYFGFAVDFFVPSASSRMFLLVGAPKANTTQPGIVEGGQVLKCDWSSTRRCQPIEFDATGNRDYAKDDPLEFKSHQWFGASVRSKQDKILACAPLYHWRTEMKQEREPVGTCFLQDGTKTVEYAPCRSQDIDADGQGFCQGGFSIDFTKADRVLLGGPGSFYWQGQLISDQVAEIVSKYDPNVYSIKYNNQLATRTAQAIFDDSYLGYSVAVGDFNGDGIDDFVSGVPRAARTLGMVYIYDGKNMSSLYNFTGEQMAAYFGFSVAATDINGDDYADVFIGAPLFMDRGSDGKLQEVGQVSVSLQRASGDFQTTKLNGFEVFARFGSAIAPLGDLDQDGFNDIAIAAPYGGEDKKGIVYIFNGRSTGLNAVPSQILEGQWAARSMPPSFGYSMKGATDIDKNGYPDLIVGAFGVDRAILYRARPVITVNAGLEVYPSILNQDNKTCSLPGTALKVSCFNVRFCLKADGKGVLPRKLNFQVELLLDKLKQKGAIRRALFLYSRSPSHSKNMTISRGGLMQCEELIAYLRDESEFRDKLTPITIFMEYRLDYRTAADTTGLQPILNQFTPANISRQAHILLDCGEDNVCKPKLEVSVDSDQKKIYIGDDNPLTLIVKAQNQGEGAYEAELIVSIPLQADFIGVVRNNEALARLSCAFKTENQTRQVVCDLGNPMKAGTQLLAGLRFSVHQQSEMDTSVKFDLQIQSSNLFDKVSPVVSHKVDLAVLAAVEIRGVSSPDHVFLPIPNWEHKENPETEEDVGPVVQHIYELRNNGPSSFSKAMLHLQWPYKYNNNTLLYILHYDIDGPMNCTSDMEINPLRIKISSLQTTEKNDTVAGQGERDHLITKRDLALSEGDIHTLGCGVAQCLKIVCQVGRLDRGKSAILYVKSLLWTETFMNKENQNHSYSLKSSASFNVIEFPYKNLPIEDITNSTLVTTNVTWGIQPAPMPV
Chain of human αVβ5 (P18084 24-719 limits assumed): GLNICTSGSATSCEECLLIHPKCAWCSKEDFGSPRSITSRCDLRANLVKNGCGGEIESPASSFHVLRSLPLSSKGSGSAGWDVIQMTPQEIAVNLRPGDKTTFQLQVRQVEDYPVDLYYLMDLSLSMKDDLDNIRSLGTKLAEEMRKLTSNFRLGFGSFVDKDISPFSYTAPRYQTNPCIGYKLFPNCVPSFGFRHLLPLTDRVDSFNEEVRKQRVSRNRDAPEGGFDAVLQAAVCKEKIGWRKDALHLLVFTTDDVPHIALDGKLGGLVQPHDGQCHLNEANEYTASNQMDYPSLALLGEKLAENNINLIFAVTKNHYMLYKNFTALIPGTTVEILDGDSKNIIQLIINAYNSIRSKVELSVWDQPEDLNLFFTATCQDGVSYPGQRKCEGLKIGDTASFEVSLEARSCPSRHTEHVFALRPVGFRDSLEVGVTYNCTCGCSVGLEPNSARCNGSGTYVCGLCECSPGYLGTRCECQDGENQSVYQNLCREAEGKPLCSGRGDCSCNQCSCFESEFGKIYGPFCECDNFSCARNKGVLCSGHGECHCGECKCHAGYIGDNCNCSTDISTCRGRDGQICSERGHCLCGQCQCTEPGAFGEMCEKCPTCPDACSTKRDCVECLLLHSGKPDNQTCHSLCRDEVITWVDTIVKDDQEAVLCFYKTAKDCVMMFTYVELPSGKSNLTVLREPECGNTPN
Chain of human αVβ8 (P06756 31-992 limits assumed): as the sequence (P06756 31-992 limits assumed) above
Chain of human αVβ8 (P26012 43-684 limits assumed): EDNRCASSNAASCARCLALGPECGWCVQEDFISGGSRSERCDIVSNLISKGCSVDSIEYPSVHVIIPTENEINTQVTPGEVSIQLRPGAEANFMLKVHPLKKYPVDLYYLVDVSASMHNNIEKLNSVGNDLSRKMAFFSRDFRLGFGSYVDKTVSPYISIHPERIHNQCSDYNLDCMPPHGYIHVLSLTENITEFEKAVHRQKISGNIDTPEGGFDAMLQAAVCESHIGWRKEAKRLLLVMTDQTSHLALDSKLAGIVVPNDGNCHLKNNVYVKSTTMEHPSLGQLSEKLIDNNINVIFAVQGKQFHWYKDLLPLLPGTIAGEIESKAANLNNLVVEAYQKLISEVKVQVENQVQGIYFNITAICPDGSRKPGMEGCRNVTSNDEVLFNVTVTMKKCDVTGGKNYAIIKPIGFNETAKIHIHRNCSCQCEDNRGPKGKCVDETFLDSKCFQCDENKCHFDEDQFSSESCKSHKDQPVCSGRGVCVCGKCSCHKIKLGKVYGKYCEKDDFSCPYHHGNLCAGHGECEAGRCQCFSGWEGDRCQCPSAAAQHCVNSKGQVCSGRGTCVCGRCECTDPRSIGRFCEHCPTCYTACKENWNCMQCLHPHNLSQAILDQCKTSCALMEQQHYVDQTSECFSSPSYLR
T1 sequence (P06756 31-992 limits assumed): as the sequence (P06756 31-992 limits assumed) above
T1 sequence (P18564 22-707 limits assumed): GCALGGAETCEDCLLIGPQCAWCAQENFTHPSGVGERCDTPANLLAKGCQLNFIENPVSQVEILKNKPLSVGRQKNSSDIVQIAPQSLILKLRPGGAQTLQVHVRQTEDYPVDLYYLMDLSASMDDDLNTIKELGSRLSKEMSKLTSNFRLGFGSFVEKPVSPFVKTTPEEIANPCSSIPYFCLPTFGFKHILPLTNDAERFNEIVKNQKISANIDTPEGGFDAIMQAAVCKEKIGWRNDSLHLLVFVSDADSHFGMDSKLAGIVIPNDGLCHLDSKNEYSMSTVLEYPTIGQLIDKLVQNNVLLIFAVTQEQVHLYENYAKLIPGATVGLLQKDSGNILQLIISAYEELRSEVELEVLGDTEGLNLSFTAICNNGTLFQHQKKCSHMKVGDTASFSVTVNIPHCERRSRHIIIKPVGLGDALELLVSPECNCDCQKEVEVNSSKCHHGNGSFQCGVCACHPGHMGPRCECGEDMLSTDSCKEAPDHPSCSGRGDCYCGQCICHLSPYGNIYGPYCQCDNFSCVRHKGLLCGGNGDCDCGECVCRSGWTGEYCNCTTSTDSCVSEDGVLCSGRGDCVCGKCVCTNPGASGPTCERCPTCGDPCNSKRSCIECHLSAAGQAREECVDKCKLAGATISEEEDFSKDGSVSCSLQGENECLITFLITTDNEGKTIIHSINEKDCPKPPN
Chain of human αVβ3 (P06756 31-992 limits assumed): as the sequence (P06756 31-992 limits assumed) above
Chain of human αVβ3 (P05106 27-718 limits assumed): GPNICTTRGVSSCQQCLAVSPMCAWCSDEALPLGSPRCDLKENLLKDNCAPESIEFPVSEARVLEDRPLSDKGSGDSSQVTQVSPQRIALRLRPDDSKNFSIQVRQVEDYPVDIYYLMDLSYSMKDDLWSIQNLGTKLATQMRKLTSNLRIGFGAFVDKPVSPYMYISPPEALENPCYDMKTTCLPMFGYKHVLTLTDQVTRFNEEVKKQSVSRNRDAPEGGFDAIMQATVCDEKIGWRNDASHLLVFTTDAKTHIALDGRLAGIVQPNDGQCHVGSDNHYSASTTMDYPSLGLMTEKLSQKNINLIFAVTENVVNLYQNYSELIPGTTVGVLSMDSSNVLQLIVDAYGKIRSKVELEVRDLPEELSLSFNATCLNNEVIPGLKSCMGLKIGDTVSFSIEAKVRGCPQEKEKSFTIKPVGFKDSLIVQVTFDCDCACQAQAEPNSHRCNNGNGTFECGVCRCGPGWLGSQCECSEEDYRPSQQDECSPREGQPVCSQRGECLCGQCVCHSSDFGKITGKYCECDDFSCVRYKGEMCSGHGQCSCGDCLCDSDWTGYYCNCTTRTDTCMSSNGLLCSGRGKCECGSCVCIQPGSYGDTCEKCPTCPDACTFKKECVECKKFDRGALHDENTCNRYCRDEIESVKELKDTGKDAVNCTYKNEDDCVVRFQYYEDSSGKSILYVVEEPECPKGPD
Chain of human αVβ1 (P06756 31-992 limits assumed): as the sequence (P06756 31-992 limits assumed) above
Chain of human αVβ1 (P05556 21-728 limits assumed): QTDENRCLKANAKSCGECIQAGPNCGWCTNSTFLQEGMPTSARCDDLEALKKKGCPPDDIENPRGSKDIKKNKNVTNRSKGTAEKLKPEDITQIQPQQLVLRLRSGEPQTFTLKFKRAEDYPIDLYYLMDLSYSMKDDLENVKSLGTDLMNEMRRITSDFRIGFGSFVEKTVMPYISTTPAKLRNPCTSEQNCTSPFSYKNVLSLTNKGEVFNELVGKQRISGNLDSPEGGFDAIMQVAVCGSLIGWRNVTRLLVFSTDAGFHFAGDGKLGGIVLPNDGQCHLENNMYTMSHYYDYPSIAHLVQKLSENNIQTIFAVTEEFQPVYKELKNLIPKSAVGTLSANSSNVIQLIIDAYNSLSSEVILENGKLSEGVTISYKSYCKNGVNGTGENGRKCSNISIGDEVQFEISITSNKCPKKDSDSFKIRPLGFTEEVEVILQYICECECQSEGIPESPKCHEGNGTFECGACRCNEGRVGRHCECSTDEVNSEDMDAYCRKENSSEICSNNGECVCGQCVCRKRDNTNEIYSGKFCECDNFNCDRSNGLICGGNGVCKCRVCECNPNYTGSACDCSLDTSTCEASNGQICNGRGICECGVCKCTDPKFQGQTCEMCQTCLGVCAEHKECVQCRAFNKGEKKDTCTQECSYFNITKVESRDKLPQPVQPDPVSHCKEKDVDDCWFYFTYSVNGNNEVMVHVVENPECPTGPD

Row | Structure (SMILES) | IC50 (human αVβ3) | IC50 (human αVβ1) | IC50 (human αVβ8) | IC50 (human αVβ6) | IC50 (human αVβ5)
1 | O=C(O)CC(c1cncc(C2OCCO2)c1)n1ncc2cc(OCCc3ccc4c(n3)NCCC4)ccc21 (stereo not shown) [Example 104, 3-(5-(1,3-Dioxolan-2-yl)pyridin-3-yl)-3(5-(2-(5,6,7,8-tetrahydro-1,8-naphthyridin-2-yl)ethoxy)-1H-indazol-1yl)propanoic acid] | 2.61 nM | 30 nM | 1800 nM | 12 nM | 0.28 nM
2 | O=C(O)CC(c1cnc2[nH]ncc2c1)n1ncc2cc(OCCc3ccc4c(n3)NCCC4)ccc21 (stereo not shown) [Example 106, 3-(1H-Pyrazolo[3,4-b]pyridin-5-yl)-3-(5-(2-(5,6,7,8-tetrahydro-1,8-naphthyridin-2-yl)ethoxy)-1H-indazol-1-yl)propanoic acid, 2 TFA] | 1.3 nM | 78 nM | 3000 nM | 23 nM | 2.6 nM
3 | CCOc1ncc([C@H](CC(=O)O)n2ncc3cc(OCCc4ccc5c(n4)NCCC5)ccc32)cn1 [Example 107, (S)-3-(2-Ethoxypyrimidin-5-yl)-3-(5-(2-(5,6,7,8-tetrahydro-1,8-naphthyridin-2-yl)ethoxy)-1H-indazol-1-yl)propanoic acid, TFA] | 2.4 nM | 64 nM | 300 nM | 15 nM | 0.32 nM
4 | Cn1ncc2cc(C(CC(=O)O)n3ncc4cc(OCCc5ccc6c(n5)NCCC6)ccc43)cnc21 (stereo not shown) [Example 117, 3-(1-Methyl-1H-pyrazolo[3,4-b]pyridin5-yl)-3-(5-(2-(5,6,7,8-tetrahydro-1,8-naphthyridin-2-yl)ethoxy)-1H-indazol-1-yl)propanoic acid, 2 TFA] | 1.6 nM | 63 nM | 2200 nM | 19 nM | 0.46 nM
5 | COc1ncc([C@H](CC(=O)O)n2cc3ccc(CCc4ccc5c(n4)NCCC5)cc3n2)cn1 [Example 118, (5)-3-(2-Methoxypyrimidin-5-yl)-3-(6-(2-(5,6,7,8-tetrahydro-1,8-naphthyridin-2-yl)ethyl)-2H-indazol-2-yl)propanoic acid] | 2 nM | 4300 nM | 3100 nM | 12 nM | 1.1 nM
6 | O=C(O)CC(c1cnc(N2CCC2)nc1)n1ncc2cc(OCCc3ccc4c(n3)NCCC4)ccc21 (stereo not shown) [Example 119, 3-(2-(Azetidin-1-yl)pyrimidin-5-yl)-3-(5-(2-(5,6,7,8-tetrahydro-1,8-naphthyridin-2-yl)ethoxy)-1H-indazol-1-yl)propanoic acid, 2 TFA] | 1.4 nM | 98 nM | 4400 nM | 10.6 nM | 0.6 nM
7 | Cn1cc2cc(C(CC(=O)O)n3ncc4cc(OCCc5ccc6c(n5)NCCC6)ccc43)cnc2n1 (stereo not shown) [Example 120, 3-(2-Methyl-2H-pyrazolo[3,4-b]pyridin-5-yl)-3-(5-(2-(5,6,7,8-tetrahydro-1,8-naphthyridin-2-yl)ethoxy)-1H-indazol-1-yl)propanoic acid, 2 TFA] | 1.5 nM | 200 nM | 7500 nM | 16 nM | 0.2 nM
8 | O=C(O)CC(c1cncc(-c2cnco2)c1)n1ncc2cc(OCCc3ccc4c(n3)NCCC4)ccc21 (stereo not shown) [Example 121, 3-(5-(Oxazol-5-yl)pyridin-3-yl)-3-(5-(2-(5,6,7,8-tetrahydro-1,8-naphthyridin-2-yl)ethoxy)-1H-indazol-1-yl)propanoic acid] | 3.1 nM | 71 nM | 2600 nM | 8.8 nM | 0.46 nM
